Assays:
Human CDC42EP3 3'-UTR = assay: 3'-UTR luciferase reporter assay; type: cell-based; details: Du145 cells; 30 nM miR-141 vs NC oligos
Method: (§1) Du145 cells transfected with NC or miR-141 oligos at the two doses and time intervals indicated were used in Western blotting. Indicated below are relative expression levels (normalized to respective GAPDH and compared to NC) of each protein determined by densitometric scanning of the individual bands. […] Bars, mean±SD. *P<0.05; **P<0.01. […] Du145 cells were co-transfected with NC or miR-141 oligos (30 nM) in combination with pcDNA3.1 (control) vector or pcDNA-RAC1 or pcDNA-CDC42 expression vector. After 48 h, cells were harvested for invasion assays. […] Du145 cells were infected with Lenti-141 or control lentivirus (MOI 10, 48 h) and then harvested to measure the Rho GTPase activities. Bars, mean±SD. *P<0.05. […] Du145 cells were transfected with the antisense oligos to NC or miR-141 (anti-141; 30 nM) and then used in invasion assays (FIG. 5E). In FIG. 5F and FIG. 5G Du145 cells were transfected with 10 nM of scramble siRNA control (siCon) or siRNAs targeting RAC1 (FIG. 5F) or CDC42 (FIG. 5G), either alone or in combination of anti-141 (30 nM). 48 h later, cells were harvested for invasion assays. Bars, mean±SD. *P<0.05; **P<0.01.
(§2) The human CD44 3′-UTR was amplified from Du145 genomic DNA using primers 5′-[…]-3′ (SEQ ID NO: 2) and 5′-[…]-3′ (SEQ ID NO: 3), as previously described (13). For site-specific mutagenesis, the region in the CD44 3′-UTR (SEQ ID NO: 4, shown with uracils) complementary to the seed sequence of miR-141 (SEQ ID NO: 1) were mutated (TAGTGTT to GGCGCGG; see FIG. 3D). The human EZH2 3′-UTR was amplified from Du145 genomic DNA using primers 5′-GAGCTC-CATCTGCTACCTCCTCCCC-3′ (SEQ ID NO: 6) and 5′-[…]-3′ (SEQ ID NO: 7). For site-specific mutagenesis, the region complementary to the seed sequence of miR-141 was mutated (AAAGTGTT to TATCACAA; see FIG. 6A). The PCR fragments were cloned into pGEM-T vector (Promega, Madison, Wis.) and sequence confirmed. Cells were plated in 24-well plates and co-transfected, using Lipofectamine 2000, with 1 μg firefly luciferase reporter plasmid and 5 ng Renilla plasmid (phRL-CMV) into which the 3′-UTR fragments were cloned. The luciferase activities were detected using Duo-luciferase reporter assay system (Promega). Human RAC1, CDC42, CDC42EP3, and ARPC5 3′-UTR luciferase reporter constructs were obtained from SwitchGear Genomics (Menlo Park, Calif.) and luciferase activities were measured per the manufacturer's instructions using LightSwitch luciferase assay kit.

Human CDC42 3'-UTR = assay: 3'-UTR luciferase reporter assay; type: cell-based; details: Du145 cells; 30 nM miR-141 vs NC oligos
Method: as §1, §2

Human ARPC5 3'-UTR = assay: 3'-UTR luciferase reporter assay; type: cell-based; details: Du145 cells; 30 nM miR-141 vs NC oligos
Method: as §1, §2

Human RAC1 3'-UTR = assay: 3'-UTR luciferase reporter assay; type: cell-based; details: Du145 cells; 30 nM miR-141 vs NC oligos
Method: as §1, §2

CD44+ Du145 cells = assay: Clonal and sphere formation assays; type: cell-based, human; details: miR-141 vs NC oligos, 30 nM, 48 h transfection
Method: Average % of CD44^+ cells (as determined by flow analysis; n=3-5) is indicated for each cell type (UD, undetectable). […] Purified CD44^+ Du145 cells were transfected with NC or miR-141 oligos (30 nM, 48 h) and then plated for clonal (1D & 1E) and sphere (1F) assays. Bars represent mean±SD. *, P<0.05; **, P<0.01. […] Shown are tumor images, cell numbers injected (100,000 cells per injection for all models), site of injection (s.c, subcutaneously) and days (d) when tumors were harvested. Tumor weight and incidences with corresponding P values are also indicated. ns, not significant. […] For 1st generation (1°) sphere assays, 1,000 cells per well were plated in triplicate for each group in 12-well plate and results scored in 11 days. For 2nd generation (2°), the 1° spheres were harvested, digested with Collagenase and Trypsin into single cells, 1,000 cells/well were plated, and results scored in 10 days. Quantification of the colonies was plotted (1 L; **P<0.01). […]
For clonal assays, cultured prostate cancer cells or human prostate cancer cells freshly purified from patient primary tumors were plated at a clonal density (i.e., 100 cells/well) in a 6-well plate. The number of holoclones (33) was counted several days later. […] Floating spheres that arose in 1-2 weeks were counted. […]

miR-141: miR-141 mirVana mimics (Life Technologies); microRNA-141 oligonucleotide may have SEQ ID NO: 1; in some experiments over-expressed by lentiviral vectors (UAACACUGUCUGGUAAAGAUGG; listed as RNA, further chemistry not given here) [miR-141 mirVana mimics (Life Technologies); in some experiments over-expressed by lentiviral vectors]
inhibited: luciferase activity of CDC42EP3 3'-UTR construct (Human CDC42EP3 3'-UTR) | luciferase activity of CDC42 3'-UTR construct (Human CDC42 3'-UTR) | luciferase activity of ARPC5 3'-UTR construct (Human ARPC5 3'-UTR) | luciferase activity of RAC1 3'-UTR construct (Human RAC1 3'-UTR) | clonogenic capacity (CD44+ Du145 cells) | sphere-forming capacity (CD44+ Du145 cells)

Reference: patent US10202604B2, “Methods of using microRNA-141” (Stemirna Therapeutics Co., Ltd., priority 2016, dated 2019)
